Measurements: patent publication US20070270418A1, “Inhibitors of P38 and Methods of Using the Same” (priority 2003, published 2007)

Assays:
p38α = target: T1, p38α (Homo sapiens, UniProt Q16539); assay: p38 MAP Kinase assay, ATF2 phosphorylation (ELISA); assay type: biochemical; conditions: 40 μM ATP
T1 construct: p38 MAP Kinases are recombinant human full-length proteins with an amino-terminal GST fusion; GST (N); purchased Upstate (Charlottesville, Va.); host or cells: E. coli
In short: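 ATF2 Thr69 phosphorylation was quantified by ELISA (HRP/TMB, 450 nm) after EDTA termination. Reactions: 6 ng GST-fused full-length human p38α, 15 min compound pre-incubation at room temperature, then 30 min at 37° C with 40 μM ATP and 1.25 μM GST-ATF2 (aa 19-96), pH 7.5 HEPES buffer.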

[1] = tested on: TNFα release from THP-1 cells; assay: TNFα release from LPS-stimulated THP-1 cells; assay type: cell-based; conditions: Homo sapiens, THP-1, 18 h, LPS 10 μg/ml, 18 hours; read-out: TNFα (THP-1) IC50
In short: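 THP-1 cells (10^6 cells/ml on resuspension) preincubated with compound 30 min at 37°C, 5% CO2, final DMSO ≤0.5%, then stimulated with 10 μg/ml LPS for 18 h (TNFα). Supernatants collected for TNFα analysis.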

T1 sequence (Q16539 whole entry, the tested form may be a part): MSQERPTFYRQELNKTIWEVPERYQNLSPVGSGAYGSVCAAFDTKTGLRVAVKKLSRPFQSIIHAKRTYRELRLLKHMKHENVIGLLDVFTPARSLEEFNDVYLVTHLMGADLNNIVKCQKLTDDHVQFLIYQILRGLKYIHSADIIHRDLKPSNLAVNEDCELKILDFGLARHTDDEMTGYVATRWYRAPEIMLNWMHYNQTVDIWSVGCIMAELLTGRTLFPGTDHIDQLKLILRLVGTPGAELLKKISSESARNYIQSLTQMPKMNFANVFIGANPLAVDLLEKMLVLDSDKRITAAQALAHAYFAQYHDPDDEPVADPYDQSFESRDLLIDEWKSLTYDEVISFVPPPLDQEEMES

- IC50 (p38α): 5.25 nM
- IC50 [1]: 5.88 nM
- melting point: 149 °C
Structure (SMILES): CC(C)(CO)CNc1nccc(-c2c(-c3ccc(F)cc3)nc3occn23)n1 [XXXIX, 3-({4-[6-(4-Fluorophenyl)imidazo[2,1-b][1,3]oxazol-5-yl]pyrimidin-2-yl}amino)-2,2-dimethylpropan-1-ol]
